Data reported in PubChem BioAssay (NCI).
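Method: 48-hour compound exposure of cells in 96-well plates, five concentrations, linear interpolation of endpoints. GI50 is the concentration that inhibits growth by half. TGI marks complete inhibition of growth.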

Experiments:
Assay in all cases: inhibition of tumour cell growth, NCI panel, 48 h
SF-539 CNS = test system: SF-539 CNS
A498 renal = test system: A498 renal
DU-145 prostate = test system: DU-145 prostate
HCT-116 colon = test system: HCT-116 colon
HS 578T breast = test system: HS 578T breast
SN12C renal = test system: SN12C renal
CCRF-CEM leukemia = test system: CCRF-CEM leukemia
EKVX NSCLC = test system: EKVX NSCLC
COLO 205 colon = test system: COLO 205 colon
A549 NSCLC = test system: A549 NSCLC
UACC-62 melanoma = test system: UACC-62 melanoma
NCI-H460 lung = test system: NCI-H460 lung
BT-549 breast = test system: BT-549 breast
RPMI-8226 leukemia = test system: RPMI-8226 leukemia
OVCAR-5 ovarian = test system: OVCAR-5 ovarian
T-47D breast = test system: T-47D breast
NCI-H226 lung = test system: NCI-H226 lung
RXF 393 renal = test system: RXF 393 renal
SNB-19 CNS = test system: SNB-19 CNS
LOX IMVI melanoma = test system: LOX IMVI melanoma
KM12 colon = test system: KM12 colon
HOP-92 NSCLC = test system: HOP-92 NSCLC
K-562 leukemia = test system: K-562 leukemia
OVCAR-3 ovarian = test system: OVCAR-3 ovarian
UACC-257 melanoma = test system: UACC-257 melanoma
SW-620 colon = test system: SW-620 colon
SF-295 CNS = test system: SF-295 CNS
SK-OV-3 ovarian = test system: SK-OV-3 ovarian
UO-31 renal = test system: UO-31 renal
SK-MEL-2 melanoma = test system: SK-MEL-2 melanoma
MCF7 breast = test system: MCF7 breast
HCC-2998 colon = test system: HCC-2998 colon
SK-MEL-28 melanoma = test system: SK-MEL-28 melanoma
M14 melanoma = test system: M14 melanoma
MOLT-4 leukemia = test system: MOLT-4 leukemia
ACHN renal = test system: ACHN renal
SNB-75 CNS = test system: SNB-75 CNS
CAKI-1 renal = test system: CAKI-1 renal
NCI-H522 lung = test system: NCI-H522 lung
SF-268 CNS = test system: SF-268 CNS
HL-60(TB) leukemia = test system: HL-60(TB) leukemia
HCT-15 colon = test system: HCT-15 colon
TK-10 renal = test system: TK-10 renal
786-0 renal = test system: 786-0 renal
SR leukemia = test system: SR leukemia
IGROV1 ovarian = test system: IGROV1 ovarian
OVCAR-4 ovarian = test system: OVCAR-4 ovarian
HOP-62 NSCLC = test system: HOP-62 NSCLC
PC-3 prostate = test system: PC-3 prostate
MALME-3M melanoma = test system: MALME-3M melanoma
OVCAR-8 ovarian = test system: OVCAR-8 ovarian
NCI-H23 lung = test system: NCI-H23 lung
MDA-MB-435 = test system: MDA-MB-435
MDA-MB-231 breast = test system: MDA-MB-231 breast
HT29 colon = test system: HT29 colon
U251 CNS = test system: U251 CNS
SK-MEL-5 melanoma = test system: SK-MEL-5 melanoma
NCI/ADR-RES ovarian = test system: NCI/ADR-RES ovarian

**Q.** What does the source list for `C#Cc1nc(C2=C(C)C(OC(C)=O)/C(=N/OC(C)=O)C2)cs1` (stereo not given)?
**A.** GI50 (SF-539 CNS): 0.687 µM; TGI (SF-539 CNS): 1.87 µM; GI50 (A498 renal): 27.1 µM; TGI (A498 renal): 50.4 µM; GI50 (DU-145 prostate): 11.5 µM; TGI (DU-145 prostate): > 70.3 µM; GI50 (HCT-116 colon): 13.5 µM; TGI (HCT-116 colon): 30.4 µM; GI50 (HS 578T breast): 8.7 µM; TGI (HS 578T breast): > 25.9 µM; GI50 (SN12C renal): 10.1 µM; TGI (SN12C renal): 25.4 µM; GI50 (CCRF-CEM leukemia): 0.188 µM; TGI (CCRF-CEM leukemia): 0.478 µM; GI50 (EKVX NSCLC): 12 µM; TGI (EKVX NSCLC): > 61.4 µM; GI50 (COLO 205 colon): 20.1 µM; TGI (COLO 205 colon): > 55.7 µM; GI50 (A549 NSCLC): 5.39 µM; TGI (A549 NSCLC): > 100 µM; GI50 (UACC-62 melanoma): 13.7 µM; TGI (UACC-62 melanoma): 29.4 µM; GI50 (NCI-H460 lung): > 28.5 µM; TGI (NCI-H460 lung): > 100 µM; GI50 (BT-549 breast): 5.65 µM; TGI (BT-549 breast): 13 µM; GI50 (RPMI-8226 leukemia): 0.312 µM; TGI (RPMI-8226 leukemia): 1.17 µM; GI50 (OVCAR-5 ovarian): 7.36 µM; TGI (OVCAR-5 ovarian): > 41.9 µM; GI50 (T-47D breast): 7.49 µM; TGI (T-47D breast): 30.4 µM; GI50 (NCI-H226 lung): > 100 µM; TGI (NCI-H226 lung): > 100 µM; GI50 (RXF 393 renal): 2.62 µM; TGI (RXF 393 renal): 6.03 µM; GI50 (SNB-19 CNS): > 59.5 µM; TGI (SNB-19 CNS): > 100 µM; GI50 (LOX IMVI melanoma): 0.0198 µM; TGI (LOX IMVI melanoma): 0.0453 µM; GI50 (KM12 colon): 47.4 µM; TGI (KM12 colon): > 100 µM; GI50 (HOP-92 NSCLC): 1.73 µM; TGI (HOP-92 NSCLC): 3.24 µM; GI50 (K-562 leukemia): 11.8 µM; TGI (K-562 leukemia): 53.5 µM; GI50 (OVCAR-3 ovarian): 2.7 µM; TGI (OVCAR-3 ovarian): 7.6 µM; GI50 (UACC-257 melanoma): 17.6 µM; TGI (UACC-257 melanoma): 62.8 µM; GI50 (SW-620 colon): 13.3 µM; TGI (SW-620 colon): 30.4 µM; GI50 (SF-295 CNS): 1.84 µM; TGI (SF-295 CNS): 3.67 µM; GI50 (SK-OV-3 ovarian): 6.16 µM; TGI (SK-OV-3 ovarian): 20.6 µM; GI50 (UO-31 renal): 0.164 µM; TGI (UO-31 renal): 0.299 µM; GI50 (SK-MEL-2 melanoma): 27.6 µM; TGI (SK-MEL-2 melanoma): > 69.7 µM; GI50 (MCF7 breast): 6.75 µM; TGI (MCF7 breast): > 76.6 µM; GI50 (HCC-2998 colon): 23.2 µM; TGI (HCC-2998 colon): > 60.9 µM; GI50 (SK-MEL-28 melanoma): 17.1 µM; TGI (SK-MEL-28 melanoma): 39 µM; GI50 (M14 melanoma): 21.3 µM; TGI (M14 melanoma): > 80 µM; GI50 (MOLT-4 leukemia): 1.85 µM; TGI (MOLT-4 leukemia): 4.69 µM; GI50 (ACHN renal): 0.831 µM; TGI (ACHN renal): 7.17 µM; TGI (SNB-75 CNS): > 24.2 µM; GI50 (CAKI-1 renal): 4.66 µM; TGI (CAKI-1 renal): 11.7 µM; GI50 (NCI-H522 lung): 0.429 µM; TGI (NCI-H522 lung): 0.937 µM; GI50 (SF-268 CNS): 9.78 µM; TGI (SF-268 CNS): 45.7 µM; GI50 (HL-60(TB) leukemia): 0.587 µM; TGI (HL-60(TB) leukemia): 1.32 µM; GI50 (HCT-15 colon): 6.21 µM; TGI (HCT-15 colon): 23.8 µM; GI50 (TK-10 renal): 28.3 µM; TGI (TK-10 renal): 56.9 µM; GI50 (786-0 renal): 1.83 µM; TGI (786-0 renal): 3.33 µM; GI50 (SR leukemia): 0.228 µM; TGI (SR leukemia): 0.649 µM; GI50 (IGROV1 ovarian): 0.745 µM; TGI (IGROV1 ovarian): 2.09 µM; GI50 (OVCAR-4 ovarian): 6.65 µM; TGI (OVCAR-4 ovarian): 22.1 µM; GI50 (HOP-62 NSCLC): 9.24 µM; TGI (HOP-62 NSCLC): > 23.6 µM; GI50 (PC-3 prostate): 4.66 µM; TGI (PC-3 prostate): > 42.4 µM; GI50 (MALME-3M melanoma): 1.81 µM; TGI (MALME-3M melanoma): 4.86 µM; GI50 (OVCAR-8 ovarian): 9.99 µM; TGI (OVCAR-8 ovarian): 41.6 µM; GI50 (NCI-H23 lung): 1.26 µM; TGI (NCI-H23 lung): 4.86 µM; GI50 (MDA-MB-435): 34.5 µM; TGI (MDA-MB-435): > 77.3 µM; GI50 (MDA-MB-231 breast): 4.62 µM; TGI (MDA-MB-231 breast): > 20.6 µM; GI50 (HT29 colon): 2.27 µM; TGI (HT29 colon): 6.67 µM; GI50 (U251 CNS): 4.58 µM; TGI (U251 CNS): > 26.9 µM; GI50 (SK-MEL-5 melanoma): 19.5 µM; TGI (SK-MEL-5 melanoma): 56.1 µM; GI50 (NCI/ADR-RES ovarian): 4.98 µM; TGI (NCI/ADR-RES ovarian): > 21.3 µM
